Measured values reported in patent US20230085307A1, “PYRIDAZINONE COMPOUND AND HERBICIDE” (NISSAN CHEMICAL CORPORATION, priority 2019, published 2023).

Columns and labels:
[1] = system: rice flat sedge; assay: Test Example 3: herbicidal effect by foliage application, Wagner pot (Table 18, symbol E); format: in vivo, rice flat sedge (Cyperus iria); settings: for herbicidal effect on E: rice flat sedge: amount of applied herbicide 320 g/ha
Description: (§1) [Test Example 3] Herbicidal Effect Test by Foliage Application After alluvial soil was placed into 1/10000 are of Wagner pot, water was poured and mixed to form a submerged condition having a water depth of 0.1 cm to 0.5 cm. Seeds of barnyard grass, Chinese sprangletop, rice flat sedge, and rice were sowed and the pot was placed in a greenhouse at 25° C. to 30° C. for growth of the plants. After 14-day growth of the plants, the emulsion agent of the compound of the present invention prepared according to Formulation Example 2 was diluted with water so as to achieve a predetermined herbicide amount, and the diluted emulsion agent was uniformly applied to a foliage part with a small-sized spray. Three weeks after the herbicide application, the effect of the herbicide on each plant was evaluated according to the criteria of Test Example 1.

[2] = system: barnyard grass; assay: Test Example 3: herbicidal effect by foliage application, Wagner pot (Table 18, symbol H); format: in vivo, barnyard grass (Echinochloa crus-galli); settings: for herbicidal effect on H: barnyard grass: amount of applied herbicide 320 g/ha
Description: as §1

[3] = system: Chinese sprangletop; assay: Test Example 3: herbicidal effect by foliage application, Wagner pot (Table 18, symbol D); format: in vivo, chinese sprangletop (Leptochloa chinensis); settings: for herbicidal effect on D: Chinese sprangletop: amount of applied herbicide 320 g/ha
Description: as §1

[4] = system: green foxtail; assay: Test Example 5: herbicidal effect by foliage application, plastic box (Table 20, symbol G); format: in vivo, green foxtail (Setaria viridis); settings: foliage application, 320 g/ha; for effect on green foxtail (G): 3 weeks after application
From the text: (§2) [Test Example 5] Herbicidal Effect Test by Foliage Application
(§3) Sterilized diluvial soil was placed in a plastic box having a length of 21 cm, a width of 13 cm, and a depth of 7 cm. The seeds of each of southern crabgrass, green foxtail, barnyard grass, wild oat, blackgrass, Italian ryegrass, windgrass, velvetleaf, redroot pigweed, lambsquarters, chickweed, false cleavers, persian speedwell, corn, soybean, rice, wheat, beet, and rapeseed were sowed in a spot-like manner and covered with the soil having a thickness of about 1.5 cm. Thereafter, the plants were grown in a greenhouse at 25° C. to 30° C. After 14-day growth of the plants, the emulsion agent of the compound of the present invention prepared according to Formulation Example 2 was diluted with water so as to achieve a predetermined herbicide amount, and the diluted emulsion agent was uniformly applied to a foliage part with a small-sized spray. Three weeks after the herbicide application, the effect of the herbicide on each plant was evaluated according to the criteria of Test Example 1.

[5] = system: persian speedwell; assay: Test Example 5: herbicidal effect by foliage application, plastic box (Table 20, symbol R); format: in vivo, Persian speedwell (Veronica persica); settings: foliage application, 320 g/ha; for effect on persian speedwell (R): 3 weeks after application
From the text: as §2, §3

[6] = system: barnyard grass; assay: Test Example 5: herbicidal effect by foliage application, plastic box (Table 20, symbol H); format: in vivo, barnyard grass (Echinochloa crus-galli); settings: foliage application, 320 g/ha; for effect on barnyard grass (H): 3 weeks after application
From the text: as §2, §3

[7] = system: wild oat; assay: Test Example 5: herbicidal effect by foliage application, plastic box (Table 20, symbol I); format: in vivo, wild oat (Avena fatua); settings: foliage application, 320 g/ha; for effect on wild oat (I): 3 weeks after application
From the text: as §2, §3

[8] = system: windgrass; assay: Test Example 5: herbicidal effect by foliage application, plastic box (Table 20, symbol L); format: in vivo, windgrass (Apera spica-venti); settings: foliage application, 320 g/ha; for effect on windgrass (L): 3 weeks after application
From the text: as §2, §3

[9] = system: blackgrass; assay: Test Example 5: herbicidal effect by foliage application, plastic box (Table 20, symbol J); format: in vivo, blackgrass (Alopecurus myosuroides); settings: foliage application, 320 g/ha; for effect on blackgrass (J): 3 weeks after application
From the text: as §2, §3

[10] = system: lambsquarters; assay: Test Example 5: herbicidal effect by foliage application, plastic box (Table 20, symbol O); format: in vivo, lambsquarters (Chenopodium album); settings: foliage application, 320 g/ha; for effect on lambsquarters (O): 3 weeks after application
From the text: as §2, §3

[11] = system: Italian ryegrass; assay: Test Example 5: herbicidal effect by foliage application, plastic box (Table 20, symbol K); format: in vivo, Italian ryegrass (Lolium multiflorum); settings: foliage application, 320 g/ha; for effect on Italian ryegrass (K): 3 weeks after application
From the text: as §2, §3

[12] = system: velvetleaf; assay: Test Example 5: herbicidal effect by foliage application, plastic box (Table 20, symbol M); format: in vivo, velvetleaf (Abutilon theophrasti); settings: foliage application, 320 g/ha; for effect on velvetleaf (M): 3 weeks after application
From the text: as §2, §3

[13] = system: southern crabgrass; assay: Test Example 5: herbicidal effect by foliage application, plastic box (Table 20, symbol F); format: in vivo, southern crabgrass (Digitaria ciliaris); settings: foliage application, 320 g/ha; for effect on southern crabgrass (F): 3 weeks after application
From the text: as §2, §3

CCCC(=O)Oc1c(OC)nn(C)c(=O)c1-c1c(-c2ccc(Oc3ccccc3)cc2)sc2ccccc12 [1-165]
herbicidal effect on E (rice flat sedge), rating 0-5 ([1]; 80 g/ha): 0 (Herbicidal rate of 5% or less (almost no effect))
herbicidal effect on H (barnyard grass), rating 0-5 ([2]; 80 g/ha): 2 (Herbicidal rate of 20% or more and less than 40%)
herbicidal effect on D (Chinese sprangletop), rating 0-5 ([3]; 80 g/ha): 0 (Herbicidal rate of 5% or less (almost no effect))

CCCC(=O)Oc1c(OC)nn(C)c(=O)c1-c1c(-c2ccsc2)sc2ccccc12 [1-193]
herbicidal effect on E (rice flat sedge), rating 0-5 ([1]; 80 g/ha): 0 (Herbicidal rate of 5% or less (almost no effect))
herbicidal effect on H (barnyard grass), rating 0-5 ([2]; 80 g/ha): 2 (Herbicidal rate of 20% or more and less than 40%)
herbicidal effect on D (Chinese sprangletop), rating 0-5 ([3]; 80 g/ha): 1 (Herbicidal rate of 5% or more and less than 20%)

COc1nn(C)c(=O)c(-c2c(-c3cc4ccccc4o3)sc3ccccc23)c1O [1-194]
effect on green foxtail (G) [4]: 0 (Herbicidal rate of 5% or less (almost no effect))
effect on persian speedwell (R) [5]: 0 (Herbicidal rate of 5% or less (almost no effect))
effect on barnyard grass (H) [6]: 0 (Herbicidal rate of 5% or less (almost no effect))
herbicidal effect on E (rice flat sedge), rating 0-5 ([1]; 320 g/ha): 2 (Herbicidal rate of 20% or more and less than 40%)
effect on wild oat (I) [7]: 1 (Herbicidal rate of 5% or more and less than 20%)
herbicidal effect on H (barnyard grass), rating 0-5 ([2]; 320 g/ha): 0 (Herbicidal rate of 5% or less (almost no effect))
effect on windgrass (L) [8]: 0 (Herbicidal rate of 5% or less (almost no effect))
effect on blackgrass (J) [9]: 0 (Herbicidal rate of 5% or less (almost no effect))
effect on lambsquarters (O) [10]: 0 (Herbicidal rate of 5% or less (almost no effect))
effect on Italian ryegrass (K) [11]: 3 (Herbicidal rate of 40% or more and less than 70%)
effect on velvetleaf (M) [12]: 0 (Herbicidal rate of 5% or less (almost no effect))
effect on southern crabgrass (F) [13]: 0 (Herbicidal rate of 5% or less (almost no effect))
herbicidal effect on D (Chinese sprangletop), rating 0-5 ([3]; 320 g/ha): 0 (Herbicidal rate of 5% or less (almost no effect))

CCCC(=O)Oc1c(OC)nn(C)c(=O)c1-c1c(-c2cc3ccccc3o2)sc2ccccc12 [1-195]
effect on green foxtail (G) [4]: 0 (Herbicidal rate of 5% or less (almost no effect))
effect on persian speedwell (R) [5]: 0 (Herbicidal rate of 5% or less (almost no effect))
effect on barnyard grass (H) [6]: 0 (Herbicidal rate of 5% or less (almost no effect))
effect on wild oat (I) [7]: 0 (Herbicidal rate of 5% or less (almost no effect))
effect on windgrass (L) [8]: 0 (Herbicidal rate of 5% or less (almost no effect))
effect on blackgrass (J) [9]: 0 (Herbicidal rate of 5% or less (almost no effect))
effect on lambsquarters (O) [10]: 0 (Herbicidal rate of 5% or less (almost no effect))
effect on Italian ryegrass (K) [11]: 0 (Herbicidal rate of 5% or less (almost no effect))
effect on velvetleaf (M) [12]: 0 (Herbicidal rate of 5% or less (almost no effect))
effect on southern crabgrass (F) [13]: 0 (Herbicidal rate of 5% or less (almost no effect))

Cc1nn(C)c(=O)c(-c2c(-c3ccc(C(F)(F)F)cc3Cl)sc3ccc(F)cc23)c1O [2-356]
herbicidal effect on E: rice flat sedge [1]: 4 (Herbicidal rate of 70% or more and less than 90%)
herbicidal effect on H: barnyard grass [2]: 4 (Herbicidal rate of 70% or more and less than 90%)
herbicidal effect on D: Chinese sprangletop [3]: 4 (Herbicidal rate of 70% or more and less than 90%)

Cc1nn(C)c(=O)c(-c2c(-c3cnc(Cl)s3)sc3ccc(F)cc23)c1O [2-394]
herbicidal effect on E: rice flat sedge [1]: 5 (Herbicidal rate of 90% or more (almost completely withered))
herbicidal effect on H: barnyard grass [2]: 5 (Herbicidal rate of 90% or more (almost completely withered))
herbicidal effect on D: Chinese sprangletop [3]: 3 (Herbicidal rate of 40% or more and less than 70%)

COc1c(C)nn(C)c(=O)c1-c1c(-c2ccnc(F)c2)sc2ccc(F)cc12 [2-427]
herbicidal effect on E: rice flat sedge [1]: 2 (Herbicidal rate of 20% or more and less than 40%)
herbicidal effect on H: barnyard grass [2]: 3 (Herbicidal rate of 40% or more and less than 70%)
herbicidal effect on D: Chinese sprangletop [3]: 0 (Herbicidal rate of 5% or less (almost no effect))

Cc1nn(C)c(=O)c(-c2c(-c3ccc(OC(F)F)cc3)sc3c(Cl)cccc23)c1O [4-074]
herbicidal effect on rice flat sedge (E) ([1]; 320 g/ha): 3 (Herbicidal rate of 40% or more and less than 70%)
herbicidal effect on barnyard grass (H) ([2]; 320 g/ha): 4 (Herbicidal rate of 70% or more and less than 90%)
herbicidal effect on Chinese sprangletop (D) ([3]; 320 g/ha): 0 (Herbicidal rate of 5% or less (almost no effect))

CCCC(=O)Oc1c(C)nn(C)c(=O)c1-c1c(-c2ccccc2O)sc2c(Cl)cccc12 [4-080]
herbicidal effect on rice flat sedge (E) ([1]; 320 g/ha): 4 (Herbicidal rate of 70% or more and less than 90%)
herbicidal effect on barnyard grass (H) ([2]; 320 g/ha): 2 (Herbicidal rate of 20% or more and less than 40%)
herbicidal effect on Chinese sprangletop (D) ([3]; 320 g/ha): 3 (Herbicidal rate of 40% or more and less than 70%)

CCCC(=O)Oc1c(C)nn(C)c(=O)c1-c1c(-c2ccc(C(F)(F)F)cc2)sc2cc(Cl)c(Cl)cc12 [5-048]
herbicidal effect on rice flat sedge (E) ([1]; 320 g/ha): 0 (Herbicidal rate of 5% or less (almost no effect))
herbicidal effect on barnyard grass (H) ([2]; 320 g/ha): 3 (Herbicidal rate of 40% or more and less than 70%)
herbicidal effect on Chinese sprangletop (D) ([3]; 320 g/ha): 4 (Herbicidal rate of 70% or more and less than 90%)

COc1cc2sc(-c3ccc(C#N)cc3)c(-c3c(O)c(C)nn(C)c3=O)c2cc1Cl [5-074]
herbicidal effect on rice flat sedge (E) ([1]; 320 g/ha): 3 (Herbicidal rate of 40% or more and less than 70%)
herbicidal effect on barnyard grass (H) ([2]; 320 g/ha): 3 (Herbicidal rate of 40% or more and less than 70%)
herbicidal effect on Chinese sprangletop (D) ([3]; 320 g/ha): 5 (Herbicidal rate of 90% or more (almost completely withered))

COc1ccccc1-c1oc2ccc(Cl)cc2c1-c1c(O)c(C)nn(C)c1=O [9-001]
herbicidal effect on green foxtail (G) ([4]; three weeks after application): 0 (Herbicidal rate of 5% or less (almost no effect))
herbicidal effect on persian speedwell (R) ([5]; three weeks after application): 0 (Herbicidal rate of 5% or less (almost no effect))
herbicidal effect on barnyard grass (H) ([6]; three weeks after application): 0 (Herbicidal rate of 5% or less (almost no effect))
herbicidal effect on wild oat (I) ([7]; three weeks after application): 0 (Herbicidal rate of 5% or less (almost no effect))
herbicidal effect on windgrass (L) ([8]; three weeks after application): 0 (Herbicidal rate of 5% or less (almost no effect))
herbicidal effect on blackgrass (J) ([9]; three weeks after application): 0 (Herbicidal rate of 5% or less (almost no effect))
herbicidal effect on lambsquarters (O) ([10]; three weeks after application): 3 (Herbicidal rate of 40% or more and less than 70%)
herbicidal effect on Italian ryegrass (K) ([11]; three weeks after application): 0 (Herbicidal rate of 5% or less (almost no effect))
herbicidal effect on velvetleaf (M) ([12]; three weeks after application): 2 (Herbicidal rate of 20% or more and less than 40%)
herbicidal effect on southern crabgrass (F) ([13]; three weeks after application): 0 (Herbicidal rate of 5% or less (almost no effect))
